The values that follow come from US20240246942A1, “KINASE INHIBITORS FOR THE TREATMENT OF NEURODEGENERATIVE DISEASES” (priority 2020, published 2024).

Common to all, as to test: biochemical
Test [1] has as its target T1, panel of 374 wild-type kinases (Homo sapiens, UniProt O14733).
T1 construct: purchased Reaction Biology Corporation
T1 sequence (O14733 1-419): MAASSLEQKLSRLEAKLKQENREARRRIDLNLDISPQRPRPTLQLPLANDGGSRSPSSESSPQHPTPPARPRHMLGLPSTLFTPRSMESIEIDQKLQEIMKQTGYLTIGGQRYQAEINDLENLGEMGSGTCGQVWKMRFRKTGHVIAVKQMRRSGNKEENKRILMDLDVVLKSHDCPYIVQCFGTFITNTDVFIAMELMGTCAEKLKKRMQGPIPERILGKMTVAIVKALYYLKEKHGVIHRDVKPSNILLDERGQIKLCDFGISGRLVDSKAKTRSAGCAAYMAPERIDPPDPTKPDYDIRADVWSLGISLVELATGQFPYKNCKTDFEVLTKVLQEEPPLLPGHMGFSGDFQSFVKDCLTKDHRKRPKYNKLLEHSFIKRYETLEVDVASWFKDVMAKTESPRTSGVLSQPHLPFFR
To be noted: read-out: % Enzyme Activity (relative to DMSO controls), MKK7.

Test [2] has as its target T2, panel of 374 wild-type kinases (Homo sapiens, UniProt P41240).
T2 construct: purchased Reaction Biology Corporation
The settings on record: read-out: % Enzyme Activity (relative to DMSO controls), CSK.

In test [3] the target is T3, panel of 374 wild-type kinases (Homo sapiens, UniProt P49760).
T3 construct: purchased Reaction Biology Corporation
T3 sequence (P49760 whole entry): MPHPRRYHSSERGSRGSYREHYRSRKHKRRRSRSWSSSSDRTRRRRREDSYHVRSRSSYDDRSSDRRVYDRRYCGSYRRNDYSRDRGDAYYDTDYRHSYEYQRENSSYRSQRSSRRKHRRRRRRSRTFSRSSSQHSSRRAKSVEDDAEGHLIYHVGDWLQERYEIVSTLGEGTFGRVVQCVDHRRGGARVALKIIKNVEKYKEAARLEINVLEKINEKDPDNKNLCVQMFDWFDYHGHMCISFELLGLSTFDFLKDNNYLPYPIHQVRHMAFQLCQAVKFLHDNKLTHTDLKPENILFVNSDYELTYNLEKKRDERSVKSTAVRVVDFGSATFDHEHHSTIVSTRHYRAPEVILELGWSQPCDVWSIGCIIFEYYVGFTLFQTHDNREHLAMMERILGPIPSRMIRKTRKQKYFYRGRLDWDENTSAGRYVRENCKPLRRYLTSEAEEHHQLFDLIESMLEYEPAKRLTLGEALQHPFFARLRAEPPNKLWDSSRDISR
To be noted: read-out: % Enzyme Activity (relative to DMSO controls), CLK2.

Test [4] deals with T4, panel of 374 wild-type kinases (Homo sapiens, UniProt P51817).
T4 construct: purchased Reaction Biology Corporation
T4 sequence (P51817 1-358): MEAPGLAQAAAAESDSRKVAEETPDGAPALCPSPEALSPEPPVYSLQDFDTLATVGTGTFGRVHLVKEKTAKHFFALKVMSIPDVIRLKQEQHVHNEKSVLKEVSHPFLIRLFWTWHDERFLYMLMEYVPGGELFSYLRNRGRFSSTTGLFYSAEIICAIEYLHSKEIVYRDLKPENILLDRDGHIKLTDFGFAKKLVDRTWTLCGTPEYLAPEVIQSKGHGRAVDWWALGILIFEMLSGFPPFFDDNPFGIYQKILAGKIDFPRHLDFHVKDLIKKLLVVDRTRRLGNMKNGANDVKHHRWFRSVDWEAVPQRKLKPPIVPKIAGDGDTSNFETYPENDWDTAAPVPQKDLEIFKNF
To be noted: read-out: % Enzyme Activity (relative to DMSO controls), kinase PRKX.

In test [5] the target is T5, panel of 374 wild-type kinases (Homo sapiens, UniProt P53667).
T5 construct: purchased Reaction Biology Corporation
T5 sequence (P53667 whole entry): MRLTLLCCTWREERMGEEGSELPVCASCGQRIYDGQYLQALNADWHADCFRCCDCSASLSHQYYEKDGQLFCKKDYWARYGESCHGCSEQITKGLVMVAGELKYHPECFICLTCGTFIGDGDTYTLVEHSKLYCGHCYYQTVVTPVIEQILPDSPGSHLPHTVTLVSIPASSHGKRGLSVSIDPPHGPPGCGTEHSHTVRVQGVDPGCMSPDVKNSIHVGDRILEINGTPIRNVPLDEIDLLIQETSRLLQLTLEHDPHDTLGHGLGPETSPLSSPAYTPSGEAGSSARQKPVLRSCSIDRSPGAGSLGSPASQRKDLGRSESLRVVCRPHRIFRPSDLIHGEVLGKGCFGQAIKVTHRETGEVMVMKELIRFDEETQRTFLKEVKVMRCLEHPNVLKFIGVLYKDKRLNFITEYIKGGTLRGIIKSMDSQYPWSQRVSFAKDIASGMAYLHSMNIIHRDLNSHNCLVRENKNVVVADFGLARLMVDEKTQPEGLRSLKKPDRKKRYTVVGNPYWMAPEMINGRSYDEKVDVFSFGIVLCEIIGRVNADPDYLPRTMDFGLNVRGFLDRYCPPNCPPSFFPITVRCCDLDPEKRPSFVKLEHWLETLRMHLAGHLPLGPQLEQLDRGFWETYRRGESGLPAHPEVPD
The settings on record: read-out: % Enzyme Activity (relative to DMSO controls), LIMK1.

Test [6] addresses T6, panel of 374 wild-type kinases (Homo sapiens, UniProt Q13188).
T6 construct: purchased Reaction Biology Corporation
T6 sequence (Q13188 1-491): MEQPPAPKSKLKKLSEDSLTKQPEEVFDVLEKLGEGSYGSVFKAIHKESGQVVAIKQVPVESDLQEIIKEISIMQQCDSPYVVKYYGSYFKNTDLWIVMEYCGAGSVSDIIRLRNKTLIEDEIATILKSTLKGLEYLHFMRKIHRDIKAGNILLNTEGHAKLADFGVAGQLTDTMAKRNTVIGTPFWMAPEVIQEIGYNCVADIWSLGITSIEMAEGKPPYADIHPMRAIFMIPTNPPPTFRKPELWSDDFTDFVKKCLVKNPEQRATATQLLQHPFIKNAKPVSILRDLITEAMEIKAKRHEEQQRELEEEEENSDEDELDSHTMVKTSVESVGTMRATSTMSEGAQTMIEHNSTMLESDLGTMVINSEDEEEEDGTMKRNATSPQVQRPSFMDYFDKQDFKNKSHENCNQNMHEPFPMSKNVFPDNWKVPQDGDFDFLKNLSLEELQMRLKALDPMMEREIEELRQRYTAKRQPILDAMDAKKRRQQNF
The settings on record: read-out: % Enzyme Activity (relative to DMSO controls), MST2/STK3.

Test [7] deals with T7, panel of 374 wild-type kinases (Homo sapiens, UniProt Q8TD19).
T7 construct: purchased Reaction Biology Corporation
T7 sequence (Q8TD19 1-979): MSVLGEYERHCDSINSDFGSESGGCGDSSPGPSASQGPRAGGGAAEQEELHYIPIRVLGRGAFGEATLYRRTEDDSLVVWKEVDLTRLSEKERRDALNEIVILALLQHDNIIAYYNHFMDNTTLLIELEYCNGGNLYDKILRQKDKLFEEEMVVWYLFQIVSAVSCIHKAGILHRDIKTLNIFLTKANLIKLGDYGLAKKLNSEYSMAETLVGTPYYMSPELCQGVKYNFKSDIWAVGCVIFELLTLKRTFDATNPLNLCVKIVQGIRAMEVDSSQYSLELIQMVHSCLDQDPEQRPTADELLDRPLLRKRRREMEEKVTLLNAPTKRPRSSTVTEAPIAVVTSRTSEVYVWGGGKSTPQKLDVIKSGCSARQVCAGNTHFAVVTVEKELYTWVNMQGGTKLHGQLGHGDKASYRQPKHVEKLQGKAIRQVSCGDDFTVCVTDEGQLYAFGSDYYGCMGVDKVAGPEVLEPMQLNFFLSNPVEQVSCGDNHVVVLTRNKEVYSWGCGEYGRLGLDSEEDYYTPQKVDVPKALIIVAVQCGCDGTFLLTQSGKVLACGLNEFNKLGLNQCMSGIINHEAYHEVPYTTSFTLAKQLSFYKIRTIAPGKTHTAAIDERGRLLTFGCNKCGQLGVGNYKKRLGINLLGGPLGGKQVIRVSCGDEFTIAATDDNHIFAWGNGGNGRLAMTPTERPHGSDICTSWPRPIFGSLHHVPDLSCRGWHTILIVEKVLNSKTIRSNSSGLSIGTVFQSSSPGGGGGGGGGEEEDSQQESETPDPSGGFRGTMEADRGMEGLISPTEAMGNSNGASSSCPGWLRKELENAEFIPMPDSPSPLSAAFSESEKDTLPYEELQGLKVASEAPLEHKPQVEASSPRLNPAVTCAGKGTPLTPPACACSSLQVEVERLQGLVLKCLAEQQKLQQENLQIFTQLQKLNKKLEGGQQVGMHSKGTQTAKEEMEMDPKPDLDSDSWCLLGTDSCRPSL
To be noted: read-out: % Enzyme Activity (relative to DMSO controls), NEK9.

Test [8] concerns the target T8, panel of 374 wild-type kinases (Homo sapiens, UniProt Q9NYL2).
T8 construct: purchased Reaction Biology Corporation
To be noted: read-out: % Enzyme Activity (relative to DMSO controls), kinase ZAK/MLTK.

T2 sequence (P41240 whole entry): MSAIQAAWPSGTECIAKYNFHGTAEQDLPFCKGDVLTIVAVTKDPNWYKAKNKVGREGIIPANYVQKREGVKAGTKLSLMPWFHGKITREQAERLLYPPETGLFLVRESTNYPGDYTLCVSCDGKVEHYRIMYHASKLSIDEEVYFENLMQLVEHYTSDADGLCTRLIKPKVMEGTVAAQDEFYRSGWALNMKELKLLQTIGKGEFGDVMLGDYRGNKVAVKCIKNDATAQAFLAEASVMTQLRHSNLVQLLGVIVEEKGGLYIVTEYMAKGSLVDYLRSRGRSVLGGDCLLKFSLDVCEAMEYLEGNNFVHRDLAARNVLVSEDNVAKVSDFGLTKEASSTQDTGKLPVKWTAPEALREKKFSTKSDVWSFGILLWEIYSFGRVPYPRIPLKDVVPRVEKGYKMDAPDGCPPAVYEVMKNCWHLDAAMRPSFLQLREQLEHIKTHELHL
T8 sequence (Q9NYL2 whole entry): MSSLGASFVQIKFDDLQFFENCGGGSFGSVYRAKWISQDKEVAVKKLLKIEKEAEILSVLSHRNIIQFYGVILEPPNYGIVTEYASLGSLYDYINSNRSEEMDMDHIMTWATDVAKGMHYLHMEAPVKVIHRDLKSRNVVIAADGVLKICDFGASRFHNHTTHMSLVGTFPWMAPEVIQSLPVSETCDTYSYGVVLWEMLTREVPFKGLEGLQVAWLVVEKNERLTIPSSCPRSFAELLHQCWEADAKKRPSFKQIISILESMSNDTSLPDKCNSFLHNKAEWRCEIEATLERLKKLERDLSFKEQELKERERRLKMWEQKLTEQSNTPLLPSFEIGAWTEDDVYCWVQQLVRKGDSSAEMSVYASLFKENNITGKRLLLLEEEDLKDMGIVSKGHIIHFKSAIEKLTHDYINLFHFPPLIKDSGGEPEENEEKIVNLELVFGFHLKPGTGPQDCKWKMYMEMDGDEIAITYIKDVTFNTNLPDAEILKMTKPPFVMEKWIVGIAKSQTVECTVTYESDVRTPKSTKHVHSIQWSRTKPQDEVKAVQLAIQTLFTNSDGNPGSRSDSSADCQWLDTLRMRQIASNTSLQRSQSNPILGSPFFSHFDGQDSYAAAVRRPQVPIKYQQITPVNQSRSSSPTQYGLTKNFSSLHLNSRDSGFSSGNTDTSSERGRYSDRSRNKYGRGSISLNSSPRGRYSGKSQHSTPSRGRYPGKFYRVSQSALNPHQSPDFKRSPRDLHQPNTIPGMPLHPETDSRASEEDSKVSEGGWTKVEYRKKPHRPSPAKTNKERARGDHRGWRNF

As for `Cc1sc(C(=O)NC2COC2)cc1-n1cc(NC(=O)Nc2c(F)cccc2Cl)cn1` [Compound 27, 4-(4-(3-(2-chloro-6-fluorophenyl)ureido)-1H-pyrazol-1-yl)-5-methyl-N-(oxetan-3-yl)thiophene-2-carboxamide], the remaining activity at 10 µM in test [1] (10 uM) was 120%; in test [2] (10 uM), 98%; in test [3] (10 uM), 105%; in test [4] (10 uM) it was 87.5%; in test [5] (10 uM), 105%; in test [6] (10 uM) it was 93.9%. For the same compound, the remaining activity at 10 µM in test [7] (10 uM) is 111%; in test [8] (10 uM), 89.9%.

Turning to `O=C(Nc1cnn(-c2csc(C(=O)NC3COC3)c2)c1)Nc1c(F)cccc1Cl` [Compound 25, 4-(4-(3-(2-chloro-6-fluorophenyl)ureido)-1H-pyrazol-1-yl)-N-(oxetan-3-yl)thiophene-2-carboxamide], the remaining activity at 5 µM turned out to be 135% in test [1]; 97.5% in test [2]; 112% in test [3]; 91.5% in test [4]; 104% in test [5]; 93.2% in test [6]. Besides, the results for the remaining activity at 5 µM in test [7] and in test [8] were 88.4% and 90.4%, respectively.

As for `O=C(Nc1cnn(-c2csc(C(=O)NC3COC3)c2)c1)Nc1ccccc1Cl` [Compound 17, 4-(4-(3-(2-chlorophenyl)ureido)-1H-pyrazol-1-yl)-N-(oxetan-3-yl)thiophene-2-carboxamide], the remaining activity at 5 µM in test [1] came to 112%; in test [2] it was 99.2%; in test [3], 103%; in test [4], 104%; in test [5], 96.2%; in test [6], 120%. For the same compound, the remaining activity at 5 µM came out at 104% in test [7] and 101% in test [8].
